What all share (experiment): NCI-60 cell line screen, 48 h
The subject of assay [1] is OVCAR-3 ovarian.
In assay [2] the test system is RXF 393 renal.
Assay [3] concerns SNB-19 CNS.
Assay [4] has as its system OVCAR-5 ovarian.
Assay [5] concerns EKVX NSCLC.
In assay [6] the test system is OVCAR-4 ovarian.
The test system of assay [7] is HCC-2998 colon.
In assay [8] the test system is PC-3 prostate.
For assay [9], the system named is SN12C renal.
Assay [10] deals with SK-MEL-28 melanoma.
Assay [11] deals with NCI-H23 lung.
In assay [12] the test system is BT-549 breast.
The subject of assay [13] is MDA-MB-435.
The test system of assay [14] is T-47D breast.
Assay [15] concerns NCI/ADR-RES ovarian.
Assay [16] relates to SF-295 CNS.
The subject of assay [17] is HT29 colon.
The test system of assay [18] is TK-10 renal.
Assay [19] concerns MALME-3M melanoma.

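Protocol summary: plate cells (96-well), add compound at 5 concentrations, incubate 48 h, interpolate endpoints linearly. TGI marks complete inhibition of growth.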 Where a SMILES comes first, the peptide text is derived from it. The star is where a group is joined. Fmoc = O=C(OCC1c2ccccc2-c2ccccc21)*; Boc = CC(C)(C)OC(=O)* Some results are limits rather than exact numbers.

`COC(=O)c1c(OC(C)=O)ccc2c1c1cc3ccccc3c(OC(C)=O)c1n2C`: the TGI was 62 µM in assay [1]; over 100 µM in [2]; over 100 µM in assay [3]; over 100 µM in [4]; over 100 µM in assay [5]; over 100 µM in [6]. The TGI in assay [7] was 91.7 µM; in assay [8] it was over 100 µM; in [9] it was over 100 µM; in assay [10], over 100 µM; in assay [11], over 100 µM; in assay [12], 81.1 µM. Further, the TGI in [13] was over 100 µM; in [14] it was 39.8 µM; in assay [15], over 100 µM; in assay [16], over 100 µM; in assay [17] it was 69.1 µM; in [18], 92.5 µM. In addition, the TGI in assay [19] amounted to 56.2 µM.

With `COc1ccc(-c2cc(-c3ccccc3)nc(N)n2)c(O)c1`, the TGI in [1], in assay [2], in assay [3], in assay [4], in assay [5] and in assay [6] was over 100 µM throughout. Moreover, the TGI in [7] was over 100 µM; in assay [8], over 100 µM; in assay [9] it was over 100 µM; in assay [10], over 100 µM; in assay [11], over 100 µM; in assay [12], over 29.3 µM. For the same compound, the TGI in assay [13], in assay [14], in assay [15], in [16], in assay [17] and in [18] was over 100 µM each time. The same compound yielded a TGI in assay [19] of over 100 µM.

Turning to `CCOC(=O)c1c[nH]c2cc3c(cc2c1=O)CCS3`, the TGI in [1], in [2], in assay [3], in assay [4], in assay [5] and in assay [6] was over 100 µM throughout. The TGI in assay [7], in assay [8], in assay [9], in assay [10], in [11] and in [12] was over 100 µM in each case. In addition, the TGI in [13], in assay [14], in [15], in assay [16], in assay [17] and in assay [18] was over 100 µM throughout. The compound also had a TGI in [19] of over 100 µM.

On to `CC(C)[C@H]1NC(=O)[C@H]2N=C(O[C@@H]2C)[C@@H]2CCCN2C(=O)[C@H](Cc2ccccc2)NC(=O)[C@@H]2COC(=N2)[C@@H](Cc2ccccc2)NC(=O)[C@@H]2COC1=N2`, for which the TGI in assay [1], in assay [2], in assay [3], in assay [4], in assay [5] and in assay [6] was over 100 µM throughout. The TGI in assay [7], in [8], in assay [9], in assay [10], in assay [11] and in assay [12] was over 100 µM in each case. Besides, the TGI in assay [13], in assay [14], in assay [15], in assay [16], in assay [17] and in [18] was over 100 µM each time. The TGI in assay [19] is over 100 µM.

For `O=C(CSCC(=O)N/N=C/c1ccncc1)N/N=C/c1ccncc1`, the TGI in [1], in assay [2], in assay [3], in assay [4], in assay [5] and in assay [6] was over 100 µM throughout. Besides, the TGI in assay [7], in [8], in assay [9], in [10], in assay [11] and in [12] was over 100 µM throughout. Moreover, the TGI in [13], in [14], in assay [15], in assay [16], in [17] and in [18] was over 100 µM throughout. Besides, in assay [19], the TGI was over 100 µM.

On to `CC(C)(C)OC(=O)NCCCCC(NC(=O)C(Cc1c[nH]c2ccccc12)NC(=O)OCC1c2ccccc2-c2ccccc21)C(=O)O` (stereo not drawn) (Fmoc-Trp-Lys(Boc)-OH; configuration not given here), for which the TGI in assay [1] is 40.4 µM; in assay [2] it was over 100 µM; in assay [3] it was over 100 µM; in assay [4] it was over 100 µM; in assay [5], over 100 µM; in [6], over 100 µM. Besides, the TGI in [7], in [8], in assay [9], in assay [10], in assay [11] and in assay [12] was over 100 µM each time. Further, the TGI in assay [13], in assay [14], in assay [15], in assay [16], in assay [17] and in [18] was over 100 µM throughout. The compound also gave a TGI in [19] of over 100 µM.

As for `COc1cc(C2S/C(=C/c3ccccc3)C(=O)N2c2ccccn2)cc(OC)c1OC` (stereo not drawn), the TGI in [1] amounted to 44.4 µM; in assay [2], 22.8 µM; in assay [3], 46.5 µM; in assay [4], 41.2 µM; in [5], 76.1 µM; in [6], 63.2 µM. Further, the TGI in [7] is 32.8 µM; in assay [8], over 81.7 µM; in assay [9], 33.6 µM; in assay [10] it was over 74 µM; in assay [11], 34 µM; in assay [12] it was 39 µM. Besides, the TGI is 29.3 µM in assay [13]; 36.3 µM in assay [14]; 54 µM in [15]; over 83.3 µM in [16]; over 47 µM in assay [17]; over 100 µM in assay [18]. In assay [19], this compound yielded a TGI of 27.5 µM.
